# In patent US20070099867A1, “Pharmaceutical agent containing hyaluronan as an active ingredient” (GLYCOSCIENCE LABORATORIES, INC., priority 2005, published 2007):
# Tests used:
# [1] = system: experimental autoimmune encephalomyelitis (EAE) multiple sclerosis model animals; assay: Experimental autoimmune encephalomyelitis (EAE) multiple sclerosis model, EAE neural symptom evaluation; assay type: in vivo, Lewis rats; settings: for EAE clinical score at the EAE climax: Day 13 after antigen inoculation, saline 2.2±0.41; for diseased period: saline 6.5±0.55 days
# [2] = system: K562 (human erythroleukemia cell); assay: Cell viability by Rhodamine 123 staining after heat treatment; assay type: cell-based; settings: K562, 20 minutes at 43° C. then 60 minutes at 37° C., HA4 100 ng/ml
# Method: In this example, effect of the inventive pharmaceutical agent on cell viability was measured using Rhodamine 123. […] Accordingly, the degree of the staining with Rhodamine 123 serves as an index of the mitochondrial activity, thus the index of the cellular activity (see, non-patent reference 2).
# In this example, a K562 (referred to as human erythroleukemia cell or human erythroblastoid leukemia cell) was used. The K562 was purchased from RIKEN, Japan.
# In this example relating to preparation of test substance, HA4 was prepared at 100 ng/ml. Specifically, HA4 was prepared by the method of Tawada et al. (Tawada A, Masa T, Oonuki Y, Watanabe A, Matsuzaki Y, Asari A. Large-scale preparation, purification and characterization of hyaluronan oligosaccharides from 4-mers to 52-mers. Glycobiology, 2002; 12(7): 421-6) and the concentration was adjusted using a physiological saline.
# First, the K562 was incubated under the condition described below. The culture medium for the K562 was an RPMI-1640 medium. In this example, the K562 was incubated in Groups 1 to 3 shown below. Each group was cultured under the condition described below. […]
# The K562 after washing was inoculated at 1×10^4 cells/ml in a 96-well plate and a photograph was taken using a fluorescent microscope (Nikon). The image was sent to an Adobe Photoshop (Adobe Systems) where the fluorescent intensity of a cell was measured.
# [3] = system: K562; assay: DNA chip gene expression analysis of cell viability genes (Example 3); assay type: cell-based, human; settings: K562, 42° C. 20 minutes then 37° C. 30 minutes, HA4 10 ng/ml
# Method: In this example, the cell viability enhancement of a pharmaceutical agent according to the invention was assessed using a DNA chip capable of monitoring a gene expression promotion/inhibition.
# First, the K562 was incubated in Groups 1 and 2 in the […] described above. The both groups were incubated at 42° C. for 20 minutes followed by 37° C. for 30 minutes. The medium of Group 2 was supplemented with HA4 (10 ng/ml).
# (§1) After the incubation, the medium was removed by centrifugation at 1000 rpm. The obtained cells were stored in a deep freezer at −60° C. From the cells thus stored, RNA was extracted according to a standard method. The extracted RNA was subjected to the DNA chip to analyze gene expressions. The DNA chip gene expression analysis was subtracted to DNA CHIP Research Inc. Specifically, the trade name: AceGene Human Oligo Chip 30K 1 Chip Version manufactured by DNA CHIP Research Inc. was employed.
# [4] = system: K562; assay: DNA chip expression analysis of cytokine-associated and chemokine-associated genes (Example 4); assay type: cell-based, human; settings: K562, 42° C. 20 minutes then 37° C. 30 minutes, HA4 10 ng/ml
# Method: In this example, the cytokine-associated gene and chemokine-associated gene expression inhibition of a pharmaceutical agent according to the invention was assessed using a DNA chip capable of monitoring a gene expression promotion/inhibition.
# Experimental method: First, the K562 was incubated in Groups 1 and 2 in the RPMI medium described above. The both groups were incubated at 42° C. for 20 minutes followed by 37° C. for 30 minutes. The medium of Group 2 was supplemented with HA4 (10 ng/ml).
# as §1, with “analyze the” for “analyze”, “expression.” for “expressions.”
# [5] = system: rat spinal injury model; assay: Rat spinal injury model, immunostaining of spinal tissue with anti-Hsp72 and anti-synaptophysin antibody; assay type: in vivo, Wistar rat; settings: Group 3: continuous intrathecal HA4 6 μg/day, 7 days; compared with Sham-operation (Group 1) and saline (Group 2)
# Method: In this example, a rat spinal injury model was treated continuously with a physiological saline (saline group) or a physiological saline containing HA4 (HA4 group) followed by sampling the spinal tissue, which was then immunostained with an anti-Hsp72 antibody and/or an anti-synaptophysin antibody. Also in this example, a rat which had been subjected to a Sham-operation was handled as an intact control (Sham-operation group).
# The rat spinal injury model was prepared by subjecting a Wistar rat (11-week old when receiving, 12-week old when using) to the procedure described below. First, a cervical to lumbar region of a test rat was clipped using an electric clipper under an anesthesia with pentobarbital and then the clipped region was cleaned with a 70% alcohol and ISOGIN. Then, the dorsal skin was excised to expose the 5th to 10th thoracic vertebrae and then the 6th thoracic vertebra was subjected to a semi-laminectomy. Then a dura was incised slightly and then under an anesthesia with xylocaine, the tip (fabricated to be 0.3 mm) of a microforceps was introduced over the width of the spinal posterior funiculus (about 1.5 mm) until the tip of the microforceps was brought into contact with the abdominal side vertebral body, and the microforceps were moved for 10 seconds to effect a debridement of the spinal cord (hereinafter referred to as a primary injury site). […]
# [6] = system: U937 cell (human monocyte line); assay: Cytokine production by LPS-stimulated U937 cells, Human Cytokine Antibody array; assay type: cell-based; settings: U937, LPS 100 ng/ml, HA4 100 ng/ml, 24 hours
# Method: (§2) An U937 cell was disseminated in a 2 ml aliquot in a 6-well microplate at 5×10^5 cell/ml, supplemented with an LPS at a final concentration of 100 or 1000 ng/ml, and then incubated for 24 hours with 5% CO2 at 37° C. in the presence or absence of HA4 (100 ng/ml). The culture supernatant was centrifuged at 3000 rpm for 5 minutes to obtain a test substance. A 1 ml aliquot of the recovered supernatant was subjected to Human Cytokine Antibody array (Raybio) using an ELISA (ENDOGEN) to detect the production of various cytokines.
# (§3) More specifically, the following procedure was employed to measure the production of the cytokines by the cytokine array and the ELISA.
# A 2 ml aliquot of a blocking buffer was added to a membrane blotted with an antibody, which was then shaken for 30 minutes. The blocking buffer was removed, and a 1 ml aliquot of the culture supernatant was added and shaken at room temperature for 2 hours, washed 5 times, and then admixed with a primary antibody solution. After agitating at room temperature for 1.5 hours followed by washing 5 times, a secondary antibody solution was added and agitated overnight at 4° C. After washing 5 times, a chemiluminescence was allowed to develop and photographed by a Polaroid. The photograph was scanned to obtain its digital data which were subjected to an Image J to measure the luminescent intensity. The ratio based on the luminescent intensity of an internal standard placed in 6 positions in the membrane was calculated. In addition, a relative level (%) based on the expression level in a non-treatment group (NT) being 100 was calculated.
# [7] = system: U937 cell (human monocyte line); assay: IL-6 production by LPS-stimulated U937 cells, ELISA; assay type: cell-based; settings: U937, LPS 100 ng/ml, HA4 100 ng/ml, 24 hours
# Method: as §2, §3
# To a microplate, 50 μl of a biotinylated antibody solution and 50 μl of the culture supernatant were added, and allowed to stand at room temperature for 2 hours. After washing with a washing buffer three times, 100 μl of a streptoavidin-HRP solution was added, allowed to stand at room temperature for 30 minutes, and washed with the washing buffer three times. A TMB was added, allowed to stand for at room temperature 30 minutes, and then a quencher was added to stop the reaction and the absorbance at 450 nm was measured (reference: 562 nm). The IL-6 concentration (pg/ml) was calculated based on the standard solutions measured in parallel.
# [8] = system: cerebrospinal tissue of multiple sclerosis model (EAE); assay: DNA array analysis of cerebrospinal tissue of the EAE model; assay type: in vivo, Lewis rats; settings: EAE rats
# [9] = intraspinal single administration after onset of disease, 60 μg
# [10] = intrathecal continuous 6 μg/day from antigen inoculation, Day 14, pooled cerebrospinal tissue
structure (smiles),measurement,setting,value
"CC(=O)N[C@H]1[C@H](O[C@H]2[C@H](O)[C@@H](O)[C@H](O[C@H]3[C@H](O)[C@@H](CO)OC(O)[C@@H]3NC(C)=O)O[C@@H]2C(=O)O)O[C@H](CO)[C@@H](O)[C@@H]1O[C@@H]1O[C@H](C(=O)O)[C@@H](O)[C@H](O)[C@H]1O (some centres unmarked) [HA4, tetrasaccharide hyaluronan]",EAE clinical score at the EAE climax,"[1]; intraspinal continuous administration after onset of disease, 6 μg/day, 11 days (therapeutic)",1.5±1.0
same,EAE clinical score at the EAE climax,"[1]; intraspinal continuous administration immediately after inoculation, 6 μg/day, 22 days (prophylactic), mean ± SD",0.2±0.41
same,EAE clinical score at the EAE climax,[1]; [9],1.8±0.5
same,diseased period,"[1]; intraspinal continuous administration after onset of disease, 6 μg/day, 11 days",4.3 ± 1.5 days
same,cases developing the disease,"[1]; intraspinal continuous administration immediately after inoculation, 6 μg/day, 22 days",⅙
same,diseased period,[1]; [9],5.0 ± 1.5 days
same,"Rhodamine 123 staining performance (fluorescent intensity, mitochondrial activity)",[2],inhibited such a reduction
same,"HAA+/− ratio, Caspase 2 gene expression",[3]; apoptosis-related,0.27
same,"HAA+/− ratio, Granzyme H gene expression",[3]; apoptosis-related,0.38
same,"HAA+/− ratio, STK17b (DARK2) gene expression",[3]; apoptosis-related,0.09
same,"HAA+/− ratio, pawr (Par-4) gene expression",[3]; apoptosis-related,0.45
same,"HAA+/− ratio, dnaj (hsp40) homolog gene expression",[3]; heat shock protein-related,2.62
same,"HAA+/− ratio, DNAJ2 gene expression",[3]; transcription control-related,0.34
same,"HAA+/− ratio, TAF9L gene expression",[3]; transcription control-related,0.43
same,"HA4(+)/HA4(−) ratio, CCL28 gene expression",[4],0.32
same,"HA4(+)/HA4(−) ratio, IFN-γ gene expression",[4],0.11
same,"HA4(+)/HA4(−) ratio, IFN-ω1 gene expression",[4],0.5
same,"HA4(+)/HA4(−) ratio, IL-1β gene expression",[4],0.36
same,"HA4(+)/HA4(−) ratio, IL-5 gene expression",[4],0.28
same,"HA4(+)/HA4(−) ratio, IL-17b gene expression",[4],0.31
same,"HA4(+)/HA4(−) ratio, IL-18RAP gene expression",[4],0.32
same,"HA4(+)/HA4(−) ratio, Mig(CXCL9) gene expression",[4],0.11
same,Hsp72 immunostaining at primary and secondary injury sites,[5],a further intense staining
same,synaptophysin immunostaining at primary and secondary injury sites,[5],an expression close to that observed in Group 1
same,production of IL-1α (cytokine array),[6],reduction
same,production of IL-1β (cytokine array),[6],reduction
same,production of IL-6 (cytokine array),[6],reduction
same,production of TGF-β (cytokine array),[6],reduction
same,production of TNF-α (cytokine array),[6],reduction
same,production of TNF-β (cytokine array),[6],reduction
same,production of IL-6 (ELISA),[7],reduction
same,IL-6 mRNA expression in cerebrospinal tissue,"[8]; HA4 administered intrathecally after antigen inoculation, DNA array",increased
same,"Expression level ratio (HA/physiological saline), Decoy TRAIL receptor without death domain",[8]; [10],2.0
same,"Expression level ratio (HA/physiological saline), Fibroblast growth factor receptor substrate 2",[8]; [10],2.3
same,"Expression level ratio (HA/physiological saline), Transthyretin",[8]; [10],0.38
